Experimental data published in US9630978B2, “Polycyclic-carbamoylpyridone compounds and their pharmaceutical use” (Gilead Sciences, Inc., priority 2015, dated 2017).
Like-named read-outs stand apart in the source and are kept apart here.

Key:
Format in all cases: cell-based
[1] = tested on: HIV-IIIb; test: Antiviral assay in MT4 cells; settings: MT4 cells infected with HIV-IIIb (0.004 m.o.i.), 5 days incubation, CellTiter-Glo, average over assays
Protocol: (§1) For the antiviral assay utilizing MT4 cells, 0.4 μL of 189X test concentration of 3-fold serially diluted compound in DMSO was added to 40 μl of cell growth medium (RPMI 1640, 10% FBS, 1% penicillin/streptomycin, 1% L-Glutamine, 1% HEPES) in each well of 384-well assay plates (10 concentrations) in quadruplicate.
(§2) 1 mL aliquots of 2×10^6 MT4 cells are pre-infected for 1 and 3 hours respectively at 37° C. with 25 μL (MT4) or of either cell growth medium (mock-infected) or a fresh 1:250 dilution of an HIV-IIIb concentrated ABI stock (0.004 m.o.i. for MT4 cells). Infected and uninfected cells are diluted in cell growth medium and 35 μL of 2000 (for MT4) cells is added to each well of the assay plates.
(§3) Assay plates were then incubated in a 37° C. incubator. After 5 days of incubation, 25 μL of 2× concentrated CellTiter-Glo™ Reagent (catalog # G7573, Promega Biosciences, Inc., Madison, Wis.) was added to each well of the assay plate. Cell lysis was carried out by incubating at room temperature for 2-3 minutes, and then chemiluminescence was read using the Envision reader (PerkinElmer).

[2] = Cytotoxicity (CC50) in MT4 cells within the antiviral assay; settings: human, MT4 cells (mock-infected); MT4 cells, 5 days incubation, CellTiter-Glo; average over assays
Protocol: as §1, §2, §3

[3] = tested on: MT4 cells; test: as above
Protocol: as §1, §2, §3

[4] = Human immunodeficiency virus 1, IIIB, MT4, 120 h
[5] = MT4 cells, 5 days incubation, CellTiter-Glo, average over assays, read-out: CC50

| Compound | EC50 [1, 4] | EC50 [1] | CC50 at 5 days [2] | CC50 [3] | CC50 [3, 5] |
| --- | --- | --- | --- | --- | --- |
| O=C(NCc1ccc(F)c(Cl)c1F)c1cn2c(c(O)c1=O)C(=O)N1CCCC[C@]13COC[C@H]23 [Compound 42] | 3.49 nM | – | 7480 nM | – | – |
| C[C@H]1CO[C@]23CCC[C@H]2n2cc(C(=O)NCc4ccc(F)c(Cl)c4F)c(=O)c(O)c2C(=O)N13 [Compound 69] | 8.02 nM | – | 15600 nM | – | – |
| O=C(NCc1c(F)cc(F)cc1F)c1cn2c(c(O)c1=O)C(=O)N1CC=CC[C@]13COCC[C@H]23 [Compound 30] | 2.59 nM | – | 33100 nM | – | – |
| O=C(NCc1ccc(F)c(Cl)c1F)c1cn2c(c(O)c1=O)C(=O)N1CCS[C@]13COCC[C@H]23 (racemic) [Compound 103] | 1.2 nM | – | – | – | 10800 nM |
| C[C@@H]1CO[C@@]23CCC[C@@H]2n2cc(C(=O)NCc4ccc(F)c(Cl)c4F)c(=O)c(O)c2C(=O)N13 [Compound 65] | 4.13 nM | – | 5530 nM | – | – |
| C[C@@H]1CO[C@@]23CCOC[C@@H]2n2cc(C(=O)NCc4ccc(F)c(Cl)c4F)c(=O)c(O)c2C(=O)N13 [Compound 100] | 1.82 nM | – | – | – | 7530 nM |
| C[C@@H]1CCO[C@@]23CCC[C@@H]2n2cc(C(=O)NCc4ccc(F)c(Cl)c4F)c(=O)c(O)c2C(=O)N13 [Compound 77] | 7.02 nM | – | 7270 nM | – | – |
| C[C@@H]1CN2C(=O)c3c(O)c(=O)c(C(=O)NCc4ccc(F)c(Cl)c4F)cn3[C@@H]3CCC[C@@]32O1 (single isomer, unassigned) [Compound 74] | 3.17 nM | – | 5770 nM | – | – |
| O=C(NCc1c(F)cc(F)cc1F)c1cn2c(c(O)c1=O)C(=O)N1CCCC[C@]13COCC[C@H]23 [Compound 31] | 1.94 nM | – | – | – | 33600 nM |
| O=C(NCc1ccc(F)c(Cl)c1F)c1cn2c(c(O)c1=O)C(=O)N1CC=CC[C@]13COCC[C@H]23 [Compound 25] | – | 2.42 nM | – | – | 22100 nM |
| C[C@H]1CCO[C@]23CCC[C@H]2n2cc(C(=O)NCc4ccc(F)c(Cl)c4F)c(=O)c(O)c2C(=O)N13 [Compound 80] | 11.8 nM | – | – | – | 17500 nM |
| O=C(NCc1ccc(F)c(Cl)c1F)c1cn2c(c(O)c1=O)C(=O)N1CCO[C@]13CCCC[C@H]23 (racemic) [Compound 96] | 4.43 nM | – | 1370 nM | – | – |
| C[C@@H]1CO[C@@]23CCOC[C@@H]2n2cc(C(=O)NCc4ccc(F)c(Cl)c4F)c(=O)c(O)c2C(=O)N13 [Compound 94] | – | 1.88 nM | 3990 nM | – | – |

More lines, main results first:

| EC50 [1, 4] | EC50 [1] | Compound | CC50 at 5 days [2] | CC50 [3] | CC50 [3, 5] |
| --- | --- | --- | --- | --- | --- |
| – | 3.83 nM | C[C@@H]1CN2C(=O)c3c(O)c(=O)c(C(=O)NCc4ccc(F)c(Cl)c4F)cn3[C@H]3CCC[C@]32O1 [Compound 73] | – | 3320 nM | – |
| 2.53 nM | – | C[C@@H]1CO[C@@]23CCC[C@@H]2n2cc(C(=O)NCc4c(F)cc(F)cc4F)c(=O)c(O)c2C(=O)N13 [Compound 66] | 6920 nM | – | – |
| – | 2.63 nM | O=C(NCc1ccc(F)c(Cl)c1F)c1cn2c(c(O)c1=O)C(=O)N1CCCC[C@]13COCC[C@H]23 [Compound 26] | – | 22100 nM | – |
| 4.7 nM | – | C[C@H]1CO[C@]23CCC[C@H]2n2cc(C(=O)NCc4c(F)cc(F)cc4F)c(=O)c(O)c2C(=O)N13 [Compound 70] | 16400 nM | – | – |
| 2.38 nM | – | O=C(NCc1ccc(F)c(Cl)c1F)c1cn2c(c(O)c1=O)C(=O)N1CC=CC[C@]13COC[C@H]23 [Compound 41] | 9190 nM | – | – |
| 4.62 nM | – | O=C(NCc1ccc(F)c(Cl)c1F)c1cn2c(c(O)c1=O)C(=O)N1CC=CC[C@]13CCOC[C@H]23 [Compound 14] | – | – | 8020 nM |
| – | 4.64 nM | O=C(NCc1ccc(F)c(Cl)c1F)c1cn2c(c(O)c1=O)C(=O)N1CCCC[C@]13CCOC[C@H]23 [Compound 15] | – | 7520 nM | – |
